From patent US7304093B2, “Ketone compounds and compositions for cholesterol management and related uses” (Esperion Therapeutics, Inc., priority 2000, dated 2007)
Read-outs that look alike come from different tables or passages of the source. Marks after values point to notes of the source that are not given here.

Legend:
female obese Zucker rats = experiment: Serum lipid and glycemic control variables in chow-fed obese female Zucker rats, daily oral gavage for two weeks; assay type: in vivo, rat; details: for change in vivo at 100 mg/kg: Rattus norvegicus, Table 9; for Glucose / HDL-C / NEFA / Non-HDL-C / TG / Insulin: serum, mean ± SEM; for Insulin: Tables 10, 11
How it was run: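 Female obese Zucker fa rats, 10–12 wk, 400–500 g, chow-fed, dosed daily by oral gavage for 14 days in CMC/Tween 20 or ethanol/PEG-200 vehicle. After a 6-h fast, serum was sampled pre-dose, day 7 and day 14. Triglycerides, total cholesterol, NEFA and β-hydroxybutyrate were measured, plus lipoprotein cholesterol by gel-filtration profiling.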

Compound: CC(C)(CCCCC(=O)CCCCC(C)(C)C(=O)O)C(=O)O [Compound 210c, 7-Oxo-2,2,12,12-tetramethyltridecanedioic acid]
- Insulin, percent increase (+) or decrease (−) of the pretreatment control value (female obese Zucker rats; 10 mg/kg daily oral, 1 wk): (−27) percent
- Non-HDL-C, percent increase (+) or decrease (−) of the pretreatment control value (female obese Zucker rats; 10 mg/kg daily oral, 1 wk): (−35) percent
- HDL-C, percent increase (+) or decrease (−) of the pretreatment control value (female obese Zucker rats; 30 mg/kg daily oral, 1 wk): (+156) percent
- NEFA, percent increase (+) or decrease (−) of the pretreatment control value (female obese Zucker rats; 30 mg/kg daily oral, 1 wk): (−29) percent
- Non-HDL-C, percent increase (+) or decrease (−) of the pretreatment control value (female obese Zucker rats; 30 mg/kg daily oral, 1 wk): (−23) percent
- TG, percent increase (+) or decrease (−) of the pretreatment control value (female obese Zucker rats; 30 mg/kg daily oral, 1 wk): (−33) percent
- HDL-C, percent increase (+) or decrease (−) of the pretreatment control value (female obese Zucker rats; 30 mg/kg daily oral, 2 wk): (+147) percent
- HDL-C, percent increase (+) or decrease (−) of the pretreatment control value (female obese Zucker rats; 100 mg/kg daily oral, 1 wk): (+174) percent
- NEFA, percent increase (+) or decrease (−) of the pretreatment control value (female obese Zucker rats; 100 mg/kg daily oral, 1 wk): (−33) percent
- Non-HDL-C, percent increase (+) or decrease (−) of the pretreatment control value (female obese Zucker rats; 100 mg/kg daily oral, 1 wk): (−42) percent
- TG, percent increase (+) or decrease (−) of the pretreatment control value (female obese Zucker rats; 100 mg/kg daily oral, 1 wk): (−60) percent
- HDL-C, percent increase (+) or decrease (−) of the pretreatment control value (female obese Zucker rats; 100 mg/kg daily oral, 2 wk): (+179) percent
- NEFA, percent increase (+) or decrease (−) of the pretreatment control value (female obese Zucker rats; 100 mg/kg daily oral, 2 wk): (−45) percent
- Non-HDL-C, percent increase (+) or decrease (−) of the pretreatment control value (female obese Zucker rats; 100 mg/kg daily oral, 2 wk): (−29) percent
- TG, percent increase (+) or decrease (−) of the pretreatment control value (female obese Zucker rats; 100 mg/kg daily oral, 2 wk): (−54) percent
- change in vivo at 100 mg/kg (female obese Zucker rats; 168 h, 100 mg/kg daily oral, 1 wk, read-out: HDL-Cholesterol, Percent Change from Pre-Treatment): 54%
- change in vivo at 100 mg/kg (female obese Zucker rats; 168 h, 100 mg/kg daily oral, 1 wk, read-out: NonHDL-Cholesterol, Percent Change from Pre-Treatment): -62%
- change in vivo at 100 mg/kg (female obese Zucker rats; 168 h, 100 mg/kg daily oral, 1 wk, read-out: TG, Percent Change from Pre-Treatment): -74%
- change in vivo at 100 mg/kg (female obese Zucker rats; 336 h, 100 mg/kg daily oral, 2 wk, read-out: HDL-Cholesterol, Percent Change from Pre-Treatment): 78%
- change in vivo at 100 mg/kg (female obese Zucker rats; 336 h, 100 mg/kg daily oral, 2 wk, read-out: NonHDL-Cholesterol, Percent Change from Pre-Treatment): -41%
- change in vivo at 100 mg/kg (female obese Zucker rats; 336 h, 100 mg/kg daily oral, 2 wk, read-out: TG, Percent Change from Pre-Treatment): -69%
- Glucose (female obese Zucker rats; 3 mg/kg daily oral, 1 wk): 99 ± 4 mg/dL
- HDL-C (female obese Zucker rats; 3 mg/kg daily oral, 1 wk): 36 ± 1 mg/dL
- NEFA (female obese Zucker rats; 3 mg/kg daily oral, 1 wk): 1.2 ± 0.16 mg/dL
- Non-HDL-C (female obese Zucker rats; 3 mg/kg daily oral, 1 wk): 24 ± 2 mg/dL
- TG (female obese Zucker rats; 3 mg/kg daily oral, 1 wk): 775 ± 92 mg/dL
- Insulin (female obese Zucker rats; 3 mg/kg daily oral, 1 wk): 10.7 ± 0.8 ng/dL
- Glucose (female obese Zucker rats; 3 mg/kg daily oral, 2 wk): 103 ± 3 mg/dL
- HDL-C (female obese Zucker rats; 3 mg/kg daily oral, 2 wk): 33 ± 1 mg/dL
- NEFA (female obese Zucker rats; 3 mg/kg daily oral, 2 wk): 1.5 ± 0.27 mg/dL
- Non-HDL-C (female obese Zucker rats; 3 mg/kg daily oral, 2 wk): 24 ± 3 mg/dL
- TG (female obese Zucker rats; 3 mg/kg daily oral, 2 wk): 857 ± 103 mg/dL
- Insulin (female obese Zucker rats; 3 mg/kg daily oral, 2 wk): 8.6 ± 0.5 ng/dL
- Glucose (female obese Zucker rats; 10 mg/kg daily oral, 1 wk): 105 ± 3 mg/dL
- HDL-C (female obese Zucker rats; 10 mg/kg daily oral, 1 wk): 47 ± 7 mg/dL
- NEFA (female obese Zucker rats; 10 mg/kg daily oral, 1 wk): 0.92 ± 0.09
- Non-HDL-C (female obese Zucker rats; 10 mg/kg daily oral, 1 wk): 26 ± 4^a mg/dl
- TG (female obese Zucker rats; 10 mg/kg daily oral, 1 wk): 692 ± 180 mg/dL
- Insulin (female obese Zucker rats; 10 mg/kg daily oral, 1 wk): 7.7 ± 1.0^a ng/dl
- Glucose (female obese Zucker rats; 10 mg/kg daily oral, 2 wk): 113 ± 3 mg/dL
- HDL-C (female obese Zucker rats; 10 mg/kg daily oral, 2 wk): 39 ± 5 mg/dL
- NEFA (female obese Zucker rats; 10 mg/kg daily oral, 2 wk): 1.5 ± 0.28 mg/dL
- Non-HDL-C (female obese Zucker rats; 10 mg/kg daily oral, 2 wk): 27 ± 4 mg/dL
- TG (female obese Zucker rats; 10 mg/kg daily oral, 2 wk): 814 ± 205 mg/dL
- Insulin (female obese Zucker rats; 10 mg/kg daily oral, 2 wk): 8.9 ± 1.3 ng/dL
- Glucose (female obese Zucker rats; 30 mg/kg daily oral, 1 wk): 115 ± 4 mg/dL
- HDL-C (female obese Zucker rats; 30 mg/kg daily oral, 1 wk): 53 ± 8^a mg/dl
- NEFA (female obese Zucker rats; 30 mg/kg daily oral, 1 wk): 1.0 ± 0.11
- Non-HDL-C (female obese Zucker rats; 30 mg/kg daily oral, 1 wk): 37 ± 4^a mg/dl
- TG (female obese Zucker rats; 30 mg/kg daily oral, 1 wk): 826 ± 92^a mg/dl
- Insulin (female obese Zucker rats; 30 mg/kg daily oral, 1 wk): 9.2 ± 1.3 ng/dL
- Glucose (female obese Zucker rats; 30 mg/kg daily oral, 2 wk): 118 ± 8 mg/dL
- HDL-C (female obese Zucker rats; 30 mg/kg daily oral, 2 wk): 50 ± 9^a mg/dl
- NEFA (female obese Zucker rats; 30 mg/kg daily oral, 2 wk): 1.1 ± 0.20 mg/dL
- Non-HDL-C (female obese Zucker rats; 30 mg/kg daily oral, 2 wk): 43 ± 5 mg/dL
- TG (female obese Zucker rats; 30 mg/kg daily oral, 2 wk): 962 ± 118 mg/dL
- Insulin (female obese Zucker rats; 30 mg/kg daily oral, 2 wk): 8.5 ± 1.8 ng/dL
- Glucose (female obese Zucker rats; 100 mg/kg daily oral, 1 wk): 113 ± 6 mg/dL
- HDL-C (female obese Zucker rats; 100 mg/kg daily oral, 1 wk): 66 ± 9^a mg/dl
- NEFA (female obese Zucker rats; 100 mg/kg daily oral, 1 wk): 0.81 ± 0.07
- Non-HDL-C (female obese Zucker rats; 100 mg/kg daily oral, 1 wk): 18 ± 3^a mg/dl
- TG (female obese Zucker rats; 100 mg/kg daily oral, 1 wk): 383 ± 49^a mg/dl
- Insulin (female obese Zucker rats; 100 mg/kg daily oral, 1 wk): 9.0 ± 1.0 ng/dL
- Glucose (female obese Zucker rats; 100 mg/kg daily oral, 2 wk): 122 ± 7 mg/dL
- HDL-C (female obese Zucker rats; 100 mg/kg daily oral, 2 wk): 68 ± 10^a mg/dl
- NEFA (female obese Zucker rats; 100 mg/kg daily oral, 2 wk): 0.66 ± 0.06
- Non-HDL-C (female obese Zucker rats; 100 mg/kg daily oral, 2 wk): 22 ± 3^a mg/dl
- TG (female obese Zucker rats; 100 mg/kg daily oral, 2 wk): 440 ± 58^a mg/dl
- Insulin (female obese Zucker rats; 100 mg/kg daily oral, 2 wk): 9.5 ± 0.9 ng/dL
- melting point: 60 to 61.5 °C
